Consider 22 compounds from PubChem BioAssay (NCI).

≈ marks a conversion by molar mass, not a printed value.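 Dose response: 5 concentrations. Exposure: 48 h. Format: 96-well plates. Endpoint: linear interpolation; highest concentration if not reached. Abbreviation: GI50, concentration required for 50% inhibition of growth. TGI marks complete inhibition of growth.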 Bounds are passed on as bounds.

Among the test systems are OVCAR-3 ovarian; HOP-92 NSCLC; OVCAR-4 ovarian; TK-10 renal; OVCAR-8 ovarian; LOX IMVI melanoma; SNB-19 CNS; SF-268 CNS; BT-549 breast; RPMI-8226 leukemia.
What all share (assay): growth of human tumour cells (NCI), 48 h

Consider `O=C(O)Cc1ccc(Nc2nc3cc(C(F)(F)F)ccc3nc2C(=O)O)cc1`, for which the TGI with OVCAR-3 ovarian, in the experiment on HOP-92 NSCLC, in the experiment on OVCAR-4 ovarian, in the experiment with TK-10 renal, with OVCAR-8 ovarian and with LOX IMVI melanoma was greater than 100 µM in each case. Further, the TGI with SNB-19 CNS, with SF-268 CNS and in the experiment on BT-549 breast was greater than 100 µM in each case.
As to `Cc1ccc(/C=N/n2c(-c3ccc(C)cc3)n[nH]c2=O)cc1`, the TGI in the experiment on OVCAR-3 ovarian, in the experiment on HOP-92 NSCLC, in the experiment with OVCAR-4 ovarian, in the experiment on TK-10 renal, with RPMI-8226 leukemia and with OVCAR-8 ovarian was greater than 100 µM throughout. In addition, the TGI in the experiment with SNB-19 CNS, in the experiment on SF-268 CNS and with BT-549 breast was greater than 100 µM throughout.
In the case of `c1cc2c(s1)-c1sccc1C21OCCO1`, the TGI with OVCAR-3 ovarian, with OVCAR-4 ovarian, in the experiment with TK-10 renal, in the experiment on RPMI-8226 leukemia, with OVCAR-8 ovarian and in the experiment with LOX IMVI melanoma was greater than 100 µM throughout. Also, the TGI with SNB-19 CNS, in the experiment on SF-268 CNS and in the experiment on BT-549 breast was greater than 100 µM each time.
Take `CCCC(CCC(N)=O)(CCC(N)=O)[N+](=O)[O-]`: the TGI with HOP-92 NSCLC, with TK-10 renal, in the experiment on RPMI-8226 leukemia, in the experiment with OVCAR-8 ovarian, in the experiment with SNB-19 CNS and in the experiment on SF-268 CNS was greater than 100 µM throughout. For the same compound, the TGI in the experiment on BT-549 breast was greater than 100 µM.
In the case of `Cc1c2c3ccccc3nc-2n(C)c2ccccc12`, the TGI in the experiment on OVCAR-3 ovarian worked out at 5.69 µM; in the experiment with HOP-92 NSCLC, 13.1 µM; with TK-10 renal, 9.09 µM; in the experiment with RPMI-8226 leukemia it was 52.7 µM; in the experiment on OVCAR-8 ovarian it was 15.1 µM; with SNB-19 CNS, 44.5 µM. The TGI came out at 19.1 µM in the experiment with SF-268 CNS and 19.3 µM in the experiment on BT-549 breast.
With `COc1cc(C(C)O)c(S(=O)(=O)CC(C)O)nn1` (stereo unspecified), the TGI with OVCAR-3 ovarian, in the experiment on HOP-92 NSCLC, in the experiment on OVCAR-4 ovarian, in the experiment with TK-10 renal, in the experiment on RPMI-8226 leukemia and in the experiment with OVCAR-8 ovarian was greater than 100 µM each time. Also, the TGI in the experiment with LOX IMVI melanoma, in the experiment with SNB-19 CNS and with BT-549 breast was greater than 100 µM in each case.
In the case of `[N-]=[N+]=NC1OC(=O)C(Cl)=C1N=P(c1ccccc1)(c1ccccc1)c1ccccc1` (stereo unspecified), the TGI in the experiment with OVCAR-3 ovarian was greater than 10 µM; with OVCAR-4 ovarian, greater than 10 µM; with TK-10 renal, greater than 10 µM; with RPMI-8226 leukemia, 8.33 µM; with OVCAR-8 ovarian, greater than 10 µM; with LOX IMVI melanoma it was greater than 10 µM. The TGI in the experiment with SNB-19 CNS, in the experiment on SF-268 CNS and in the experiment with BT-549 breast was greater than 10 µM throughout.
For `Cc1ccc(NC=O)c(-c2c(N)[nH]c(=S)[nH]c2=O)c1`, the TGI in the experiment with OVCAR-3 ovarian, with HOP-92 NSCLC, in the experiment with TK-10 renal, in the experiment on RPMI-8226 leukemia, with OVCAR-8 ovarian and with LOX IMVI melanoma was greater than 100 µM in each case. Besides, the TGI in the experiment on SNB-19 CNS, in the experiment with SF-268 CNS and in the experiment with BT-549 breast was greater than 100 µM each time.
As to `O=C(/C=C/c1ccc(-c2ccccc2)cc1)NCc1ccc(C(=O)NCc2ccccc2)cc1`, the TGI with OVCAR-3 ovarian, in the experiment with HOP-92 NSCLC, in the experiment on OVCAR-4 ovarian, in the experiment with TK-10 renal, in the experiment with OVCAR-8 ovarian and in the experiment on LOX IMVI melanoma was greater than 100 µM throughout. For the same compound, the TGI in the experiment with SNB-19 CNS, in the experiment with SF-268 CNS and in the experiment on BT-549 breast was greater than 100 µM in each case.
Take `C/C(=N\N=C(\N)SB(F)F)c1ccc2ccccc2c1`: the TGI in the experiment with HOP-92 NSCLC, with OVCAR-4 ovarian, in the experiment with TK-10 renal, with OVCAR-8 ovarian, in the experiment on LOX IMVI melanoma and with SNB-19 CNS was greater than 100 µM each time. Besides, the TGI with SF-268 CNS and in the experiment with BT-549 breast was greater than 100 µM in each case.
In the case of `O=C1c2cc(Cl)ccc2NC(=NC2CCCC2)C2CSCN12` (stereo unspecified), the TGI in the experiment on OVCAR-3 ovarian, in the experiment with OVCAR-4 ovarian, with TK-10 renal, in the experiment with RPMI-8226 leukemia, in the experiment with OVCAR-8 ovarian and with LOX IMVI melanoma was greater than 100 µM each time. The TGI in the experiment with SNB-19 CNS, in the experiment on SF-268 CNS and in the experiment on BT-549 breast was greater than 100 µM throughout.
As for `CC(=O)OC12C3C4C1C1C2C3C41OC(C)=O` (stereo unspecified), the TGI in the experiment with OVCAR-3 ovarian, with HOP-92 NSCLC, in the experiment with OVCAR-4 ovarian, with TK-10 renal, in the experiment with RPMI-8226 leukemia and in the experiment on OVCAR-8 ovarian was greater than 100 µM each time. Further, the TGI in the experiment on LOX IMVI melanoma, with SF-268 CNS and with BT-549 breast was greater than 100 µM in each case.
On to `CC(=O)c1c(C)nc(SSc2nc(C)c(C(C)=O)c(-c3ccc(Cl)cc3)c2C#N)c(C#N)c1-c1ccc(Cl)cc1`, for which the GI50 was 59.9 µg/mL (≈ 99.2 µM) in the experiment with OVCAR-3 ovarian; 62.6 µg/mL (≈ 104 µM) with OVCAR-4 ovarian; 102 µg/mL (≈ 170 µM) in the experiment on TK-10 renal; greater than 150 µg/mL with RPMI-8226 leukemia; 79.2 µg/mL (≈ 131 µM) in the experiment on OVCAR-8 ovarian; 49.2 µg/mL (≈ 81.6 µM) in the experiment on LOX IMVI melanoma. The GI50 in the experiment on SNB-19 CNS is 78.4 µg/mL (≈ 130 µM); in the experiment with SF-268 CNS it was 102 µg/mL (≈ 169 µM); with BT-549 breast, 38.4 µg/mL (≈ 63.6 µM). Further, the TGI with OVCAR-3 ovarian, with OVCAR-4 ovarian, with TK-10 renal, with RPMI-8226 leukemia, with OVCAR-8 ovarian and in the experiment on LOX IMVI melanoma was greater than 150 µg/mL in each case. Also, the TGI with SNB-19 CNS is greater than 150 µg/mL; with SF-268 CNS it was greater than 150 µg/mL; in the experiment on BT-549 breast, 97.2 µg/mL.
For the compound `O=C1C(Br)=C(c2ccccc2)O/C1=C/C(=O)c1ccc(Br)cc1`, the TGI in the experiment on OVCAR-3 ovarian is greater than 100 µM; with HOP-92 NSCLC, greater than 100 µM; in the experiment on OVCAR-4 ovarian it was greater than 100 µM; with TK-10 renal it was greater than 100 µM; in the experiment with RPMI-8226 leukemia it was 62.7 µM; with OVCAR-8 ovarian it was 81.1 µM. Further, the TGI in the experiment with SNB-19 CNS is greater than 100 µM; in the experiment on SF-268 CNS it was greater than 100 µM; with BT-549 breast, 25.5 µM.
On to `COc1ccc2nc(-c3ccccc3)cc(OCC(=O)O)c2c1`, for which the TGI with OVCAR-3 ovarian, in the experiment with HOP-92 NSCLC, in the experiment on TK-10 renal, in the experiment on RPMI-8226 leukemia, with OVCAR-8 ovarian and in the experiment on LOX IMVI melanoma was greater than 100 µM throughout. Also, the TGI in the experiment with SNB-19 CNS, with SF-268 CNS and in the experiment on BT-549 breast was greater than 100 µM throughout.
`COc1c(/C=C/C(C)(C)O)cc(C2CC(=O)c3c(O)cc(O)cc3O2)cc1CC=C(C)C` (stereo unspecified): the TGI in the experiment on HOP-92 NSCLC was 17.8 µM; in the experiment with OVCAR-4 ovarian, 24.6 µM; in the experiment on TK-10 renal it was 15.8 µM; in the experiment with RPMI-8226 leukemia, 28.4 µM; in the experiment on OVCAR-8 ovarian it was 23.1 µM; in the experiment on LOX IMVI melanoma, 11.6 µM. For the same compound, the values for the TGI in the experiment with SNB-19 CNS, in the experiment on SF-268 CNS and in the experiment on BT-549 breast were 18.6 µM, 19.2 µM and 15.8 µM, respectively.
Turning to `Cc1ccc2c(c1)C(=O)c1nc(C)ccc1C2=O`, the TGI in the experiment on OVCAR-3 ovarian was greater than 100 µM; with OVCAR-4 ovarian it was 89 µM; in the experiment on TK-10 renal, greater than 100 µM; in the experiment on RPMI-8226 leukemia, 74.1 µM; in the experiment with OVCAR-8 ovarian it was 97.5 µM; in the experiment on LOX IMVI melanoma it was greater than 100 µM. In addition, the figures for the TGI in the experiment on SNB-19 CNS, with SF-268 CNS and with BT-549 breast were 63.7 µM, greater than 100 µM and greater than 100 µM, respectively.
Regarding `Cc1ccc(SC2C(=O)C3CC(OCc4ccccc4)C2(C)C3(C)C)cc1` (stereo unspecified), the TGI in the experiment on OVCAR-3 ovarian, in the experiment on HOP-92 NSCLC, with TK-10 renal, in the experiment with OVCAR-8 ovarian, in the experiment with SNB-19 CNS and in the experiment with SF-268 CNS was greater than 100 µM in each case. In addition, the TGI with BT-549 breast was greater than 100 µM.
In the case of `c1ccc(C(NCC2CCO2)(c2ccccc2)c2ccccc2)cc1` (stereo unspecified), the TGI was 34.5 µM with OVCAR-3 ovarian; 32.8 µM with HOP-92 NSCLC; 30.2 µM in the experiment with OVCAR-4 ovarian; 28.4 µM in the experiment on TK-10 renal; greater than 100 µM in the experiment with RPMI-8226 leukemia; 26.6 µM with OVCAR-8 ovarian. In addition, the TGI with LOX IMVI melanoma stood at 95.5 µM; with SNB-19 CNS it was 27.6 µM; in the experiment on BT-549 breast, 38.7 µM.
`COC(=O)C1Cc2cc3c(cc2C1=O)CCCC3` (stereo unspecified): the TGI in the experiment with OVCAR-3 ovarian, with OVCAR-4 ovarian, in the experiment with TK-10 renal, with RPMI-8226 leukemia, in the experiment on OVCAR-8 ovarian and in the experiment with LOX IMVI melanoma was greater than 100 µM in each case. For the same compound, the TGI in the experiment on SNB-19 CNS, with SF-268 CNS and with BT-549 breast was greater than 100 µM each time.
As to `CC(C)(C)OC(=O)N(CCCCNC(=O)OCc1ccccc1)CCCNC(=O)OCc1ccccc1`, the TGI in the experiment on OVCAR-3 ovarian is greater than 100 µM; in the experiment with HOP-92 NSCLC, 99.1 µM; with OVCAR-4 ovarian, greater than 100 µM; in the experiment on TK-10 renal, greater than 100 µM; in the experiment with RPMI-8226 leukemia it was greater than 100 µM; with OVCAR-8 ovarian, greater than 100 µM. Besides, the TGI in the experiment with SNB-19 CNS, with SF-268 CNS and in the experiment with BT-549 breast was greater than 100 µM throughout.
Consider `O=S(=O)(O)c1cc(N=Nc2c(O)ccc3ccccc23)ccc1/C=C/c1ccc(N=Nc2c(O)ccc3ccccc23)cc1S(=O)(=O)O`, for which the TGI in the experiment on OVCAR-3 ovarian, in the experiment with HOP-92 NSCLC, in the experiment with OVCAR-4 ovarian, in the experiment with TK-10 renal, in the experiment with RPMI-8226 leukemia and in the experiment with OVCAR-8 ovarian was greater than 100 µM in each case. Moreover, the TGI in the experiment with SNB-19 CNS, in the experiment with SF-268 CNS and with BT-549 breast was greater than 100 µM each time.
